The text below walks through data of patent US20080132510A1, “Imidazolylmethyl and Pyrazolylmethyl Heteroaryl Derivatives” (priority 2005, published 2008).

This assay concerns the target benzodiazepine site of the GABAA receptor. Nature of the assay: Ligand binding assay (3H-Ro15-1788 displacement, purified rat cortical membranes). The conditions noted are these: previously determined; used in the Cheng-Prusoff equation; read-out: binding dissociation constant (Kd) of the radioligand.

Each structure is given as a SMILES string. pKd: −log10 of the molar value.

For `CCOC(=O)c1ncn2c1CN(C)C(=O)c1cc(F)ccc1-2` [^3H—R15-1788], the pKd is 9.00.

Broadly, the pKd is the Kd on a negative log10 scale, so that one unit is a factor of ten.
